Experimental data published in US20070142392A1, “Uses of rifamycins” (ActivBiotics, Inc., priority 2005, published 2007).
≈ marks a conversion by molar mass, not a printed value.

Assays:
Format in all cases: cell-based
S. aureus = assay: MIC values, S. aureus (Tables 1-4)
S. pneumo. = assay: MIC values, S. pneumo. (Tables 1-4)
E. faecalis = assay: MIC values, E. faecalis (Tables 1-4); settings: for MIC F. faecalis: Table 2
H. flu = system: H. flu
E. coli = assay: MIC values, E. coli (Tables 1-4)
C. trachomatis = assay: MIC values, C. trachomatis (Table 2)

| SMILES | MIC S. aureus (S. aureus) | MIC S. pneumo. (S. pneumo.) | MIC F. faecalis (E. faecalis) | MIC H. flu (H. flu) | MIC E. coli (E. coli) | MIC C. trachomatis (C. trachomatis) | MIC E. faecalis (E. faecalis) |
| --- | --- | --- | --- | --- | --- | --- | --- |
| CO[C@H]1/C=C/O[C@@]2(C)Oc3c(C)c(O)c4c(=O)c(c5oc6c7c(cc(O)c6nc-5c4c3C2=O)N(C)CCN7C)NC(=O)/C(C)=C\C=C\[C@H](C)[C@H](O)[C@@H](C)[C@@H](O)[C@@H](C)[C@H](OC(C)=O)[C@@H]1C [Compound 80] | 8 ng/mL (≈ 9.04 nM) | 0.12 ng/mL (≈ 0.136 nM) | 1000 ng/mL (≈ 1130 nM) | 1000 ng/mL (≈ 1130 nM) | 8000 ng/mL (≈ 9040 nM) | 0.064 ng/mL (≈ 0.0723 nM) | – |
| CO[C@H]1/C=C/O[C@@]2(C)Oc3c(C)c(O)c4c(=O)c(c5oc6c7c(cc(O)c6nc-5c4c3C2=O)N(C)CCN7C)NC(=O)/C(C)=C\C=C\[C@H](C)[C@H](O)[C@@H](C)[C@@H](O)[C@@H](C)[C@H](O)[C@@H]1C [Compound 81] | 500 ng/mL (≈ 593 nM) | 60 ng/mL (≈ 71.2 nM) | 1000 ng/mL (≈ 1190 nM) | 2000 ng/mL (≈ 2370 nM) | 8000 ng/mL (≈ 9490 nM) | 1 ng/mL (≈ 1.19 nM) | – |
| CO[C@H]1/C=C/O[C@@]2(C)Oc3c(C)c(O)c4c(=O)c(c5oc6c7c(cc(O)c6nc-5c4c3C2=O)N(C)CCCN7C)NC(=O)/C(C)=C\C=C\[C@H](C)[C@H](O)[C@@H](C)[C@@H](O)[C@@H](C)[C@H](OC(C)=O)[C@@H]1C [Compound 82] | 60 ng/mL (≈ 66.7 nM) | 8 ng/mL (≈ 8.9 nM) | 4000 ng/mL (≈ 4450 nM) | 2000 ng/mL (≈ 2220 nM) | >8000 ng/mL | 0.064 ng/mL (≈ 0.0712 nM) | – |
| CO[C@H]1/C=C/O[C@@]2(C)Oc3c(C)c(O)c4c(=O)c(c5oc6c7c(cc(O)c6nc-5c4c3C2=O)N(C)CCCN7C)NC(=O)/C(C)=C\C=C\[C@H](C)[C@H](O)[C@@H](C)[C@@H](O)[C@@H](C)[C@H](O)[C@@H]1C [Compound 83] | 120 ng/mL (≈ 140 nM) | 0.12 ng/mL (≈ 0.14 nM) | 1000 ng/mL (≈ 1170 nM) | 2000 ng/mL (≈ 2330 nM) | >8000 ng/mL | 1 ng/mL (≈ 1.17 nM) | – |
| CO[C@H]1/C=C/O[C@@]2(C)Oc3c(C)c(O)c4c(=O)c(c5oc6cc(N7CCOCC7)cc(O)c6nc-5c4c3C2=O)NC(=O)/C(C)=C\C=C\[C@H](C)[C@H](O)[C@@H](C)[C@@H](O)[C@@H](C)[C@H](O)[C@@H]1C [Compound 131] | 4 ng/mL (≈ 4.74 nM) | 0.25 ng/mL (≈ 0.296 nM) | – | 120 ng/mL (≈ 142 nM) | >8000 ng/mL | – | 60 ng/mL (≈ 71.1 nM) |
| CO[C@H]1/C=C/O[C@@]2(C)Oc3c(C)c(O)c4c(=O)c(c5sc6cc(N7CCOCC7)ccc6nc-5c4c3C2=O)NC(=O)/C(C)=C\C=C\[C@H](C)[C@H](O)[C@@H](C)[C@@H](O)[C@@H](C)[C@H](O)[C@@H]1C [Compound 132] | 15 ng/mL (≈ 17.8 nM) | 1 ng/mL (≈ 1.18 nM) | – | 60 ng/mL (≈ 71.1 nM) | 4000 ng/mL (≈ 4740 nM) | – | 500 ng/mL (≈ 592 nM) |
| CO[C@H]1/C=C/O[C@@]2(C)Oc3c(C)c(O)c4c(=O)c(c5n(C)c6ccccc6nc-5c4c3C2=O)NC(=O)/C(C)=C\C=C\[C@H](C)[C@H](O)[C@@H](C)[C@@H](O)[C@@H](C)[C@H](O)[C@@H]1C [Compound 134] | 500 ng/mL (≈ 661 nM) | 500 ng/mL (≈ 661 nM) | – | 2000 ng/mL (≈ 2650 nM) | 8000 ng/mL (≈ 10600 nM) | – | 2000 ng/mL (≈ 2650 nM) |
| CO[C@H]1/C=C/O[C@@]2(C)Oc3c(C)c(O)c4c(=O)c(c5oc6cccc(O)c6nc-5c4c3C2=O)NC(=O)/C(C)=C\C=C\[C@H](C)[C@H](O)[C@@H](C)[C@@H](O)[C@@H](C)[C@H](O)[C@@H]1C [Compound 136] | 4 ng/mL (≈ 5.27 nM) | 2 ng/mL (≈ 2.64 nM) | – | 250 ng/mL (≈ 329 nM) | 8000 ng/mL (≈ 10500 nM) | – | 120 ng/mL (≈ 158 nM) |
| CO[C@H]1/C=C/O[C@@]2(C)Oc3c(C)c(O)c4c(=O)c(c5oc6ccc(F)cc6nc-5c4c3C2=O)NC(=O)/C(C)=C\C=C\[C@H](C)[C@H](O)[C@@H](C)[C@@H](O)[C@@H](C)[C@H](O)[C@@H]1C [Compound 138] | 30 ng/mL (≈ 39.4 nM) | 60 ng/mL (≈ 78.9 nM) | – | 500 ng/mL (≈ 657 nM) | >8000 ng/mL | – | 500 ng/mL (≈ 657 nM) |
| CO[C@H]1/C=C/O[C@@]2(C)Oc3c(C)c(O)c4c(=O)c(c5oc6cc(F)ccc6nc-5c4c3C2=O)NC(=O)/C(C)=C\C=C\[C@H](C)[C@H](O)[C@@H](C)[C@@H](O)[C@@H](C)[C@H](O)[C@@H]1C [Compound 139] | 30 ng/mL (≈ 39.4 nM) | 30 ng/mL (≈ 39.4 nM) | – | 500 ng/mL (≈ 657 nM) | >8000 ng/mL | – | 500 ng/mL (≈ 657 nM) |
| COC1C=COC2(C)Oc3c(C)c(O)c4c(=O)c(c5oc6cc(N7CC8CCCNC8C7)cc(O)c6nc-5c4c3C2=O)NC(=O)C(C)=CC=CC(C)C(O)C(C)C(O)C(C)C(OC(C)=O)C1C (centres unmarked) [Compound 141] | 15 ng/mL (≈ 16.2 nM) | 0.25 ng/mL (≈ 0.27 nM) | – | 2000 ng/mL (≈ 2160 nM) | 8000 ng/mL (≈ 8650 nM) | – | 500 ng/mL (≈ 541 nM) |
| COC1C=COC2(C)Oc3c(C)c(O)c4c(=O)c(c5oc6cc(N7CC8CCCNC8C7)cc(O)c6nc-5c4c3C2=O)NC(=O)C(C)=CC=CC(C)C(O)C(C)C(O)C(C)C(O)C1C (centres unmarked) [Compound 142] | 120 ng/mL (≈ 136 nM) | 4 ng/mL (≈ 4.53 nM) | – | 4000 ng/mL (≈ 4530 nM) | >8000 ng/mL | – | 4000 ng/mL (≈ 4530 nM) |
| COC1C=COC2(C)Oc3c(C)c(O)c4c(=O)c(c5oc6cc(N7CC8CCCNC8C7)cc(O)c6nc-5c4c3C2=O)NC(=O)C(C)=CC=CC(C)C(O)C(C)C(O)C(C)C(OC(C)=O)C1C (centres unmarked) [Compound 143] | 4 ng/mL (≈ 4.32 nM) | 0.25 ng/mL (≈ 0.27 nM) | – | 250 ng/mL (≈ 270 nM) | 8000 ng/mL (≈ 8650 nM) | – | 120 ng/mL (≈ 130 nM) |
| COC1C=COC2(C)Oc3c(C)c(O)c4c(=O)c(c5oc6cc(N7CC8CCCNC8C7)cc(O)c6nc-5c4c3C2=O)NC(=O)C(C)=CC=CC(C)C(O)C(C)C(O)C(C)C(O)C1C (centres unmarked) [Compound 144] | 30 ng/mL (≈ 34 nM) | 2 ng/mL (≈ 2.26 nM) | – | 1000 ng/mL (≈ 1130 nM) | >8000 ng/mL | – | 250 ng/mL (≈ 283 nM) |
| CO[C@H]1/C=C/O[C@@]2(C)Oc3c(C)c(O)c4c(=O)c(c5oc6cc(N7CC8CCC(C7)N8)cc(O)c6nc-5c4c3C2=O)NC(=O)/C(C)=C\C=C\[C@H](C)[C@H](O)[C@@H](C)[C@@H](O)[C@@H](C)[C@H](OC(C)=O)[C@@H]1C [Compound 145] | 8 ng/mL (≈ 8.78 nM) | 0.12 ng/mL (≈ 0.132 nM) | – | 2000 ng/mL (≈ 2200 nM) | >8000 ng/mL | – | 1000 ng/mL (≈ 1100 nM) |
| CO[C@H]1/C=C/O[C@@]2(C)Oc3c(C)c(O)c4c(=O)c(c5oc6cc(N7CC8CCC(C7)N8)cc(O)c6nc-5c4c3C2=O)NC(=O)/C(C)=C\C=C\[C@H](C)[C@H](O)[C@@H](C)[C@@H](O)[C@@H](C)[C@H](O)[C@@H]1C [Compound 146] | 15 ng/mL (≈ 17.3 nM) | 1 ng/mL (≈ 1.15 nM) | – | 250 ng/mL (≈ 288 nM) | 4000 ng/mL (≈ 4600 nM) | – | 120 ng/mL (≈ 138 nM) |
| CCOC(=O)N1CCCC2CN(c3cc(O)c4nc5c6c7c8c(C)c(O)c6c(=O)c(c-5oc4c3)NC(=O)C(C)=CC=CC(C)C(O)C(C)C(O)C(C)C(OC(C)=O)C(C)C(OC)C=COC(C)(O8)C7=O)CC21 (centres unmarked) [Compound 147] | 60 ng/mL (≈ 60.2 nM) | 8 ng/mL (≈ 8.02 nM) | – | 500 ng/mL (≈ 501 nM) | >8000 ng/mL | – | 1000 ng/mL (≈ 1000 nM) |
| CCOC(=O)N1CCCC2CN(c3cc(O)c4nc5c6c7c8c(C)c(O)c6c(=O)c(c-5oc4c3)NC(=O)C(C)=CC=CC(C)C(O)C(C)C(O)C(C)C(O)C(C)C(OC)C=COC(C)(O8)C7=O)CC21 (centres unmarked) [Compound 148] | 8 ng/mL (≈ 8.38 nM) | 0.12 ng/mL (≈ 0.126 nM) | – | 500 ng/mL (≈ 524 nM) | 8000 ng/mL (≈ 8380 nM) | – | 2000 ng/mL (≈ 2090 nM) |
| COC1C=COC2(C)Oc3c(C)c(O)c4c(=O)c(c5oc6cc(N7CC8CCCN(C(C)=O)C8C7)cc(O)c6nc-5c4c3C2=O)NC(=O)C(C)=CC=CC(C)C(O)C(C)C(O)C(C)C(OC(C)=O)C1C (centres unmarked) [Compound 149] | 8 ng/mL (≈ 8.27 nM) | 2 ng/mL (≈ 2.07 nM) | – | 250 ng/mL (≈ 259 nM) | >8000 ng/mL | – | 1000 ng/mL (≈ 1030 nM) |
| COC1C=COC2(C)Oc3c(C)c(O)c4c(=O)c(c5oc6cc(N7CC8CCCN(C(C)=O)C8C7)cc(O)c6nc-5c4c3C2=O)NC(=O)C(C)=CC=CC(C)C(O)C(C)C(O)C(C)C(O)C1C (centres unmarked) [Compound 150] | 4 ng/mL (≈ 4.32 nM) | 0.06 ng/mL (≈ 0.0649 nM) | – | 500 ng/mL (≈ 541 nM) | >8000 ng/mL | – | 2000 ng/mL (≈ 2160 nM) |
